These results are taken from patent publication US12630804B2, “Blood brain barrier model” (UNIVERSITY OF LANCASHIRE, priority 2016, dated 2026).

The data set deals with blood brain barrier model. Briefly: Permeability of test/known compounds across the blood brain barrier model (TEER and fluorescence in basolateral compartment). The data set is classed as in vitro ADME, human. The note with it: added to apical side; TEER and appearance in basolateral compartment, 0.5-6 h; aptamers 100 nM cy5-tagged. As for the experimental part:
The blood brain barrier model was exposed to a test/known compounds to determine permeability. The final concentration of compound introduced to the apical well was determined previously using a viability assay, and a concentration chosen that minimised toxicity to the BBB cells (<IC50). Test compounds (short DNA oligonucleotide glioma selective aptamers (100 nM) tagged with cy5 (GL21, scrambled) and lipid nanoparticles (NPs) loaded with 0.33 μg/ml docetaxel or 2.87 μg/ml curcumin tagged with rhodamine123 and transferrin ligand) were prepared in house. When the TEER values for the BBB model peaked, 3.33 μg/ml Evans Blue Dye (EBD) was added to the apical side of the BBB model to determine if the barrier formed was intact. The test and control compounds were introduced to the well and time dependent TEER measurements were taken along with fluorescent measurements of samples at time points between 0.5-6 h from the basolateral side of the well for determination of appearance of the fluorescent tagged compounds. […] The activity was calculated as % fluorescence relative to the stock concentration of the NPs and then plotted
The blood brain barrier model was exposed to a test compound and the permeability of the barrier to said test compound was measured and compared to the permeability of the blood brain barrier model to known compounds. […]

For `Cc1cc(-c2ccc(N=Nc3ccc4c(S(=O)(=O)[O-])cc(S(=O)(=O)[O-])c(N)c4c3O)c(C)c2)ccc1N=Nc1ccc2c(S(=O)(=O)[O-])cc(S(=O)(=O)[O-])c(N)c2c1O.[Na+].[Na+].[Na+].[Na+]` [Evan's blue, Evan's Blue], the “permeation across blood brain barrier model” value was “no permeability”.
